B1: D-aminoacylase: D-aminoacylase purified from Hypomyces mycophilus IFO 6785, comprising the amino acid sequence of SEQ ID NO: 2 (protein)
chain: MRTEILFHSATVITGDEAAQPFVADVLVSKGLIAKIGNPGSINATPDTRHLDVTGYILSPGFIDMHAHSDLYLLSHPDHEAKITQGCTTEVVGQDGISYAPIRNVDQLRAIREQIAGWNGNPTDEECRTTLKGVGMFEWQTIGEYLDCLERNRTATNVAMLVPQGNLRLLACGPYDTPASAEEIQDQIQLLREAMAQGAVGMSSGLTYTPGMYASTSELASLCAALAQEFPGAFYAPHHRSYGFQAIESYAEMLDLGESTGCPIHLTHATLNFSENKGKAPVLISMVDKSLAAGVDVTLDTYPYLPGCTTLAALLPSWASAGGPQETLKRLEDAESREKIRIAVEIKGCDGGHGIPTNWDEIQIGTTNEPSIASYSGRRLSEVAQSVGKPTIEVFFEILQKDKLATSCIMHVGNEENVRQIMQHRVHMAGSDGILHGQTLHPRAYGTFTRYLGHYSRELSLVALPSMIAHLTSRPAKRLSVYPYRGLIAEGSAADIVVFNPETVKDMSTYEEPKVPSRGIRFVLVNGQIAVDEGKMTGTRGGKTLRRSTDGKVKARDE

What was measured:
[1] = in vivo; cited from earlier work
[2] = tested on: D-aminoacylase; experiment: Substrate specificity of the D-aminoacylase (amino acid produced, assayed by TNBS or HPLC method); format: biochemical, Hypomyces mycophilus; settings: for catalytic activity of the D-aminoacylase for the substrate: 20 mM substrate, 50 mM Tris-HCl pH 7.5, 30° C., 20 minutes; for substrate specificity: the enzyme acts on / not on the substrate: purified enzyme, property (c)
Experimental: The substrate specificity of the D-aminoacylase of the present invention can be tested by the following procedure. For example, an enzyme solution (1 μl) is mixed and incubated with 50 mM Tris-HCl (pH 7.5) buffer (total volume: 1.0 ml) containing 20 mM substrate (various N-acetyl-D-amino acids) at 30° C. for 20 minutes. By measuring the amounts of amino acid synthesized by this reaction, enzymatic activities for respective substrates can be compared with each other. Assay for amino acid is performed by TNBS (trinitrobenzenesulfonic acid) method or HPLC method. For example, D-tryptophan, which may be used as a standard product in the reaction, is assayed for a comparison of enzymatic activity; by taking the amount of enzyme required for the production of 1 μmol D-tryptophan as 1 unit (or U), the reactivity is compared between different enzymes or is compared with the reactivity assayed for other types of amino acids.

[3] = tested on: D-aminoacylase; experiment: Stabilizer/activator effect on D-aminoacylase activity; format: biochemical, Hypomyces mycophilus
Description: (f) stabilizer: the enzyme activity is stabilized by reducing agents and activated by ICH2CONH2.

[4] = Optimal reaction temperature of the purified D-aminoacylase; format: biochemical, Hypomyces mycophilus; settings: reaction at pH 7.5
Experimental: (e) optimal temperature: for the reaction at pH 7.5, the enzyme activity is optimal at about 45° C.; and […]

Row | Molecule | catalytic activity of the D-aminoacylase for the substrate [2] | substrate specificity: the enzyme acts on / not on the substrate [2] | further results
1 | O=C1CCC(N2C(=O)c3ccccc3C2=O)C(=O)N1 [L(S)-form, thalidomide] | – | – | teratogenic activity [1]: strong teratogenicity
2 | CC(=O)N[C@@H](CC(C)C)C(=O)O [N-acetyl-L-leucine] | substantially no catalytic activity | not on | –
3 | CC(=O)N[C@@H](Cc1ccccc1)C(=O)O [N-acetyl-L-phenylalanine] | substantially no catalytic activity | not on | –
4 | CSCC[C@@H](NC(C)=O)C(=O)O [N-acetyl-D-methionine] | efficiently catalyzes the reaction | acts on | –
5 | NC(=O)CI [ICH2CONH2] | – | – | effect on D-aminoacylase enzyme activity [3]: activated
6 | CC(=O)N[C@@H](C(=O)O)C(C)C [N-acetyl-D-valine] | catalyzes the reaction | acts on | –
7 | O=C1CCC(N2C(=O)c3ccccc3C2=O)C(=O)N1 [D(R)-form thalidomide, thalidomide] | – | – | teratogenic activity [1]: no teratogenic activity
8 | CC(=O)N[C@@H](Cc1c[nH]c2ccccc12)C(=O)O [N-acetyl-L-tryptophan] | substantially no catalytic activity | not on | –
9 | CSCC[C@H](NC(C)=O)C(=O)O [N-acetyl-L-methionine] | substantially no catalytic activity | not on | –
10 | CC(=O)N[C@H](Cc1ccccc1)C(=O)O [N-acetyl-D-phenylalanine] | very efficiently catalyzes the reaction | acts on | –
11 | CC(=O)N[C@H](CC(C)C)C(=O)O [N-acetyl-D-leucine] | efficiently catalyzes the reaction | acts on | –
12 | CC(=O)N[C@H](C(=O)O)C(C)C [N-acetyl-L-valine] | substantially no catalytic activity | not on | –
13 | CC(=O)N[C@H](Cc1c[nH]c2ccccc12)C(=O)O [N-acetyl-D-tryptophan] | efficiently catalyzes the reaction | acts on | –
14 | O=C(CCl)N[C@H](Cc1ccccc1)C(=O)O [N-chloroacetyl-D-phenylalanine] | very efficiently catalyzes the reaction | – | –
15 | B1 | – | – | optimal temperature of enzyme activity [4]: about 45 °C
